Entries after “also recorded” stand apart in the source; their conditions may differ.
Assays:
[1] = test system: I/R injury of the heart (LAD occlusion); assay: In situ open-chest LAD occlusion, 60-min ischemia/120-min reperfusion, infarct size by TTC staining; type: in vivo, Sprague-Dawley rats; details: for infarct size / cardioprotection (in words): open chest rat hearts, 60 min ischemia/120-min reperfusion, treatment just prior to reperfusion; for infarction, % of the risk zone: rat, 60-min LAD ligation/120-min reperfusion, VX-765 32 mg/kg iv 5 min, cangrelor 60 μg/kg iv bolus + 6 μg/kg/min, ticagrelor 30 mg/kg ip 10 min prior to reperfusion, mean ± standard error
protein carbonylation = assay: 60-min ischemia/30-min reperfusion: protein oxidation (carbonylation) oxyblotting of heart tissue; type: in vivo, rat; details: ischemic and non-ischemic tissues, FIG. 5D
Procedure: (§1) Applicants' standard in situ open chest LAD occlusion protocol was modified to examine effects of a 30-min reperfusion period on heart tissue enzymes and metabolic function. Two groups were tested with infusions occurring 5-min prior to reperfusion: 1) vehicle control DMSO (the VX-765 solvent) was administered as (1.0 mL of 100% DMSO)×(kg body weight) with the final infusion volume adjusted to 0.9 mL with normal saline; and 2) VX-765, 32 mg/kg. Immediately prior to experiment terminus, blood was collected and serum assayed by ELISA for levels of circulating IL-113. At experiment terminus, the heart was removed from the chest and mounted on a Langendorff apparatus where it was perfused with normal saline. The coronary branch was re-occluded and 15 μm fluorescent microspheres were infused to identify the ischemic zone followed by acquisition of biopsies from both ischemic and non-ischemic zones. […] Normalized amounts of protein were resolved by SDS-PAGE (4-20% Tris-Glycine gradient gels) and analyzed by immunoblotting using antibodies against Caspase-1, glyceraldehyde-3-phosphate dehydrogenase (GAPDH), Aldolase-A, and Hexokinase II. […] For all blotting experiments, protein transfer membranes were first stained with Coomassie Brilliant Blue (CBB) and analyzed on the LiCor Odyssey for total protein levels. […]

IL-1β = assay: In situ open-chest LAD occlusion, 60-min ischemia/30-min reperfusion: serum IL-1β ELISA; type: in vivo, rat; details: VX-765 32 mg/kg 5-min prior to reperfusion, FIG. 4A
Procedure: as §1

[2] = test system: Caspase-1, GAPDH, Aldolase-A, Hexokinase II; assay: 60-min ischemia/30-min reperfusion: immunoblotting of heart tissue biopsies; type: in vivo, rat
Procedure: (§2) Applicants' standard in situ open chest LAD occlusion protocol was modified to examine effects of a 30-min reperfusion period on heart tissue enzymes and metabolic function. Two groups were tested with infusions occurring 5-min prior to reperfusion: 1) vehicle control DMSO (the VX-765 solvent) was administered as (1.0 mL of 100% DMSO)×(kg body weight) with the final infusion volume adjusted to 0.9 mL with normal saline; and 2) VX-765, 32 mg/kg. Immediately prior to experiment terminus, blood was collected and serum assayed by ELISA for levels of circulating IL-113. At experiment terminus, the heart was removed from the chest and mounted on a Langendorff apparatus where it was perfused with normal saline. The coronary branch was re-occluded and 15 μm fluorescent microspheres were infused to identify the ischemic zone followed by acquisition of biopsies from both ischemic and non-ischemic zones. Viable samples were immediately prepared for high resolution respirometry using the Oroboros oxygraph O2K as previously described. In parallel, a portion of the biopsied tissue was immediately ejected into liquid nitrogen and stored at −80° C. Subsequently, tissues were homogenized and solubilized for analyses of total protein. Normalized amounts of protein were resolved by SDS-PAGE (4-20% Tris-Glycine gradient gels) and analyzed by immunoblotting using antibodies against Caspase-1, glyceraldehyde-3-phosphate dehydrogenase (GAPDH), Aldolase-A, and Hexokinase II. In a separate set of blots, samples were assayed for protein oxidation (carbonylation) using the oxidized protein western blot kit (Abcam, oxyblotting). For all blotting experiments, protein transfer membranes were first stained with Coomassie Brilliant Blue (CBB) and analyzed on the LiCor Odyssey for total protein levels. These CBB data were used to normalize all immuno- and oxyblotting data.

[3] = test system: blood-free isolated rat hearts (global I/R injury); assay: Ex vivo isolated buffer-perfused heart, 40-min global ischemia/120-min reperfusion
Procedure: To examine effects of VX-765 on blood-free isolated hearts, rats were anesthetized as described above. Animals were intubated through tracheotomy and positive pressure ventilation initiated with 100% oxygen. A thoracotomy was performed and the heart was quickly excised from the chest cavity for mounting on a Langendorff apparatus (within one minute). The coronary arteries were retroperfused with Krebs buffer through the aortic root and a latex balloon was placed in the lumen of the left ventricle allowing volume adjustment to 100 mmHg peak ventricular pressure. After a 20-min period of equilibration, perfusion was stopped for 40-min to induce global ischemia. The heart was maintained in a water-jacketed chamber filled with buffer during the occlusion period at a constant temperature of 37° C. Perfusion was re-initiated and continued for 120-min. The balloon was deflated at the beginning of reperfusion so subendocardial perfusion would not be impaired by any elevation in luminal diastolic pressure. The balloon was reinflated to zero diastolic pressure (unstressed ventricular volume) so final developed pressure could be measured. The coronary effluent was sampled immediately prior to ischemia, immediately at reperfusion, and serially thereafter every 20-min. The heart was perfused with buffer containing either vehicle (DMSO) or VX-765 for 10-min prior to ischemia and again during reperfusion. Two groups were tested: 1) DMSO vehicle control perfused at 0.5 mL/L of buffer and 2) VX-765, 30 μM final concentration. After 120 minutes reperfusion, developed pressure was measured as the difference between end-systolic and end-diastolic left ventricular pressure with a transducer attached to the intraventricular balloon. Infarct size was measured as above. Collected effluent was analyzed for lactate dehydrogenase (LDH) as previously described. An independent aliquot was concentrated 20-fold using a 3,000 MW cut-off ultrafilter (Millipore) and assayed for IL-113 by ELISA (ThermoFisher Scientific).

[4] = test system: buffer perfused mouse hearts (global ischemia); assay: Isolated buffer-perfused mouse heart, 35 or 50 min global ischemia/2 h reperfusion, infarct size; parameters: species or system C57BL/6 mice; details: for infarct size reduction (in words): mouse heart, 30 uM VX-765 10 min prior to ischemia and throughout reperfusion, 9 uM emricasan first 20 min of reperfusion, FIG. 9
Procedure: Hearts were removed from pentobarbital-anesthetized C57BL/6 mice and quickly (less than 3 min) mounted on a Langendorff perfusion apparatus where they were retroperfused with Krebs buffer at 100 mmHg pressure and at 37 Deg C. After 20 min perfusion to equilibrate the perfusion was stopped to create global ischemia. After and index ischemia of either 35 or 50 min the hearts were reperfused for 2 h and infarct size was measured by triphenyltetrazolium staining. Treatments included 30 uM VX-765 for 10 min prior to ischemia and throughout reperfusion, 9 uM emricasan for the first 20 min of reperfusion only, Ischemic preconditioning (IPC) with three cycles of 5 min ischemic Plus 5 min reperfusion prior to the index ischemia, or IPC+emricasan.

[5] = test system: I/R injury of the heart (LAD occlusion); details: VX-765 16 mg/kg body weight 30-min prior to onset of ischemia; cited from earlier work
[6] = test system: mitochondrial complexes (Complex-I, Complex-III); assay: 60-min ischemia/30-min reperfusion: high resolution respirometry of heart tissue biopsies; type: in vivo, rat
Procedure: as §2
Tissue mitochondrial function is reported as the amount of oxygen consumed (i.e., JO2). In this protocol, heart tissues are harvested 30-min after reperfusion to ensure tissue retention of mitochondrial function and permeabilized with detergents to allow direct assessment of each mitochondrial complex via addition of specific substrates (i.e., electron donors) and poisons. Using this early 30-min reperfusion time point allows differentiation of dysfunctional mitochondrial complex activities from the absolute loss of function occurring at later time points after cell death had ensued. As a further level of experimental control, mitochondrial complex activities were assayed in non-ischemic and ischemic zone tissues isolated from animals treated with vehicle control (DMSO) or the Caspase-1 inhibitor VX-765.

coronary I/R = details: rat models of coronary I/R; cited from earlier work

## CCO[C@@H]1OC(=O)C[C@@H]1NC(=O)[C@@H]1CCCN1C(=O)[C@@H](NC(=O)c1ccc(N)c(Cl)c1)C(C)(C)C [VX-765, (S)-1-((S)-2-{[1-(4-amino-3-chloro-phenyl)-methanoyl]-amino}-3,3-dimethyl-butanoyl)-pyrrolidine-2-carboxylic acid ((2R,3S)-2-ethoxy-5-oxo-tetrahydro-furan-3-yl)-amide]
[1]; VX-765 iv prior to ischemia, data not shown
  dose dependence of infarct size reduction (pilot studies): independent of the dose above 16 mg/kg
[1]
  infarct size / cardioprotection (in words): reduced infarct size
  infarction, % of the risk zone: 38.6±3.9%
Protein carbonylation
  protein carbonylation: no differences in protein carbonylation
IL-1β
  IL-1β level in blood, vehicle (DMSO) compared to VX-765: significantly higher levels of IL-113 in blood when compared to animals treated with VX-765
[2]; ischemic tissue, VX-765 32 mg/kg, FIG. 4B
  levels of active Caspase-1 in tissue: did not prevent Caspase-1 activation
[2]; ischemic zone, FIG. 4C
  GAPDH degradation: prevented degradation of GAPDH in the ischemic zone
[2]; ischemic zone, FIG. 4D
  aldolase-A degradation: partially prevented degradation of aldolase-A
[2]; ischemic zone, FIG. 4E
  hexokinase II degradation (negative control): no effect in hexokinase II
[3]; VX-765 30 μM, FIG. 3C
  LDH release into coronary effluent: all but abolished
[3]; blood free isolated buffer-perfused heart, FIG. 3
  protection against global I/R injury (in words): protects against global I/R injury
[3]; end of 120-min reperfusion, VX-765 30 μM
  left ventricular developed pressure: 20.5±4.2 mmHg
[3]; isolated rat heart, VX-765 30 μM in perfusate prior to ischemia and during reperfusion
  average infarction: 45.8±1.5%
[4]
  infarct size reduction (in words): similarly reduced infarct size; also recorded: equipotent for infarct size reduction
[5]
  cardioprotection, previously reported: extremely cardioprotective
[6]; compared to vehicle, FIG. 5C
  Complex-III activity: no significant differences
[6]; different substrates, FIG. 7
  JO2 in different states of mitochondrial respiration: none of the heart tissues from any group displayed JO2 differences
[6]; non-ischemic and ischemic tissues, compared to vehicle, FIG. 5B
  Complex-I activity: significantly decreased Complex-I activity
[6]; tissues reperfused for 30-min, FIG. 5A
  respiratory ratio (mitochondrial fitness): not different among all groups

## C[C@H](NC(=O)C(=O)Nc1ccccc1C(C)(C)C)C(=O)N[C@@H](CC(=O)O)C(=O)COc1c(F)c(F)cc(F)c1F [emricasan]
[4]; index ischemia 50 min, IPC three cycles 5 min ischemia/5 min reperfusion, 9 uM emricasan
  protection in combination with ischemic preconditioning (IPC): additive protection
[4]
  infarct size reduction (in words): similarly reduced infarct size; also recorded: equipotent for infarct size reduction
[4]; listed as Emricasan
  infarct size reduction (in words): as protective as VX-765 pretreatment

## zVAD
Coronary I/R
  infarct size: reduced infarct size

## CSCCNc1nc(SCCC(F)(F)F)nc2c1ncn2[C@@H]1O[C@H](COP(=O)(O)OP(=O)(O)C(Cl)(Cl)P(=O)(O)O)[C@@H](O)[C@H]1O [cangrelor]
[1]
  infarct size / cardioprotection (in words): reduced infarct size
  infarction, % of the risk zone: 43.8±2.4%

## CCCSc1nc(N[C@@H]2C[C@H]2c2ccc(F)c(F)c2)c2nnn([C@@H]3C[C@H](OCCO)[C@@H](O)[C@H]3O)c2n1 [ticagrelor]
[1]; IPOC three cycles of 30 s reperfusion/30 s occlusion at end of 60 min ischemia, FIG. 10
  protection when combined with ischemic postconditioning (IPOC): no more protective than either alone
[1]
  infarct size / cardioprotection (in words): reduced infarct size; also recorded: no more cardioprotective than cangrelor
  infarction, % of the risk zone: 42.8±3.3%
